Experimental data published in patent publication US12258337B2, “Bicyclic CX3CR1 receptor agonists” (Board of Regents, The University of Texas System, priority 2019, dated 2025).

Columns and labels:
Type in all cases: cell-based
hCX3CR1 [1] = target: T1, hCX3CR1 (Homo sapiens, UniProt P49238); experiment: Ga16 assay, CX3CR1 agonism, Ca2+ sensitive photo-protein readout (FLIPRTETRA); set-up: expressed in transfected cells; stably expresses a Ca2+ sensitive photo-protein; settings: human CX3CR1 cell line
T1 sequence (P49238 1-355): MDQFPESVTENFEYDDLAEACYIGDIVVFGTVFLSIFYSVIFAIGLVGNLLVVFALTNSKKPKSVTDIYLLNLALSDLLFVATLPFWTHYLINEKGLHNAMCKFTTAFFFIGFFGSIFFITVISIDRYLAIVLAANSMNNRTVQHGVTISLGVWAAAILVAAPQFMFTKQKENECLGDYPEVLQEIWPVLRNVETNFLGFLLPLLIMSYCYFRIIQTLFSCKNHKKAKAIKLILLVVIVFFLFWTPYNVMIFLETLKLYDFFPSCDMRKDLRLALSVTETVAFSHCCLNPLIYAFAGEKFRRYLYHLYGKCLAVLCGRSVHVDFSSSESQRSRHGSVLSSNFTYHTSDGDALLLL
Description: (§1) Compounds (as well as stereoisomer(s) thereof and/or salt(s) thereof) were tested for CX3CR1 agonism in a cell based assay with fluorescent readout in Agonist Mode in dose response in quadruplicate with intra-plate modality).
(§2) Buffers and reagents. PBS (D-PBS without calcium and magnesium; EuroClone); Trypsin (Trypsin 0.05%, EDTA 0.02% in PBS; EuroClone); DMSO (Sigma); Standard tyrode buffer: in-house solution (130 mM NaCl, 5 mM KCl, 2 mM CaCl2), 1 mM MgCl2, 5 mM NaHCO3, 20 mM HEPES in water at pH 7.4; sterile filtered); Coelenterazine, native (Biosynth); stock 10 mM; Agonist: Recombinant Human Fractalkine (CX3CL1) (PeproTech); stock: 10 μM in standard tyrode buffer+BSA 0.1%; stored at −20° C.
(§3) Cell line. Human (hCX3CR1), mouse (mCX3CR1), and rat (rCX3CR1) were used for the assay.
(§4) Assay protocol. Experiments ere performed in 384 MTP format. Cells were seeded at 7,500 cells/well in 25 μl/well complete growth medium without selection antibiotics in 384-well plates. Twenty-four hours later, cells ere assayed for the response to various compounds using the Ca^2+ sensitive photo-protein stably expressed in the cells as readout.
(§5) The experiment was performed in a 384-well format according to the following procedure: • 24h after seeding, pre-incubate the cells at room temperature for 1 hour. • Then remove the culture medium. • Load cells with 20 μL/well of standard tyrode buffer+10 μM ceolenterazine. • Incubate cell plates for 3 hours at RT. • Inject 10 μL/w of 3× concentrated test compounds and controls in assay buffer at the FLIPRTETRA and monitor the kinetic response over a period of 90 seconds.
(§6) Data from FLIPRTETRA measurements were analyzed with the Genedata Screener© software. The following examples are meant to illustrate, but in no way to limit, the claimed invention.

hCX3CR1 [2] = target: T1, hCX3CR1; experiment: Suchi5 assay (HEK/NatClytin/CNG/Suchi5 transiently transfected hCX3CR1, Fluo-8 Ca2+ readout); set-up: expressed in transfected cells; stably expresses a Ca2+ sensitive photo-protein; settings: Suchi5 assay, HEK/NatClytin/CNG/Suchi5 transfected with hCX3CR1; read-out: hCX3CR1 agonism EC50
Description: Buffers and reagents. PBS (D-PBS without calcium and magnesium; EuroClone); Trypsin (Trypsin 0.05%, EDTA 0.02% in PBS; EuroClone); Opti-MEM medium (Thermo Fisher); DMSO (Sigma); Standard tyrode buffer: in-house solution (130 mM NaCl, 5 mM KCl, 2 mM CaCl2), 1 mM MgCl2, 5 mM NaHCO3, 20 mM HEPES in water at pH 7.4; sterile filtered); Screen Quest™ Fluo-8 No Wash Calcium Assay Kit (AAt Bioquest®); Lipofectamine® 2000 Reagent (Thermo Fisher); Agonist: Recombinant Human Fractalkine (CX3CL1) (PeproTech); stock: 10 μM in standard Tyrode buffer/BSA 01%; stored at −20° C.
Cell line. The final cell line for CX3CR1-Suchi5 assay is HEK/NatClytin/CNG/Suchi5 transiently transfected hCX3CR1 cDNA. In this cell line native Gαi signaling is switched to Gαq pathway thanks to the overexpression of a Gαiq chimeric G protein (called Suchi5) to direct Gαi activation towards Ca^2+ release for measurement.
Assay protocol. Experiments are performed in 384 MTP format. Transiently transfected cells are seeded at 20,000 cells/well in 25 μl/well Opti-MEM medium without selection antibiotics in 384-well plates. 4-5-hours later 25 μL/well of complete medium with 20% of FBS are added to the cells. Twenty-four hours later, cells are assayed for the response to various compounds using a fluorescent Ca^2+ sensitive dye (FLUO8-No Wash Dye) as readout.
The experiment is performed in a 384-well format according to the following procedure: • 24h after seeding, remove the culture medium. • Load cells with 20 μL/well of 0.5X FLUO-8 No Wash Dye diluted in assay buffer. • Incubate cell plates for 1 hour at RT. • Inject 10 μL/w of 3× concentrated test compounds and controls in assay buffer at the FLIPRTETRA and monitor the kinetic response over a period of 90 seconds.
Data from FLIPRTETRA measurements are analyzed with the Genedata Screener© software.

mCX3CR1 = target: T2, mCX3CR1 (Mus musculus, UniProt Q9Z0D9); experiment: Ga16 assay, CX3CR1 agonism, Ca2+ sensitive photo-protein readout (FLIPRTETRA); settings: mouse CX3CR1 cell line
T2 construct: expressed in transfected cells; stably expresses a Ca2+ sensitive photo-protein
T2 sequence (Q9Z0D9 1-354): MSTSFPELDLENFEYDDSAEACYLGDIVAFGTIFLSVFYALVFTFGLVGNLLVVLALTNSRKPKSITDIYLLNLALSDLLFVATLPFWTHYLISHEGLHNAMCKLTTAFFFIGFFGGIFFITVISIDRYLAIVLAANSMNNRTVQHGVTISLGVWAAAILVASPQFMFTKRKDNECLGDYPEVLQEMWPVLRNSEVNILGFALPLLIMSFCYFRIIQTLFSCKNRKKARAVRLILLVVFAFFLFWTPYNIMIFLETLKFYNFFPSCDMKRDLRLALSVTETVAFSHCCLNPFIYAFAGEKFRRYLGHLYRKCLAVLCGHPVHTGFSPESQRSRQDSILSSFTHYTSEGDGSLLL
Description: as §1, §2, §3, §4, §5, §6

rCX3CR1 = target: T3, rCX3CR1 (Rattus norvegicus, UniProt P35411); experiment: as above; settings: rat CX3CR1 cell line
T3 construct: expressed in transfected cells; stably expresses a Ca2+ sensitive photo-protein
T3 sequence (P35411 1-354): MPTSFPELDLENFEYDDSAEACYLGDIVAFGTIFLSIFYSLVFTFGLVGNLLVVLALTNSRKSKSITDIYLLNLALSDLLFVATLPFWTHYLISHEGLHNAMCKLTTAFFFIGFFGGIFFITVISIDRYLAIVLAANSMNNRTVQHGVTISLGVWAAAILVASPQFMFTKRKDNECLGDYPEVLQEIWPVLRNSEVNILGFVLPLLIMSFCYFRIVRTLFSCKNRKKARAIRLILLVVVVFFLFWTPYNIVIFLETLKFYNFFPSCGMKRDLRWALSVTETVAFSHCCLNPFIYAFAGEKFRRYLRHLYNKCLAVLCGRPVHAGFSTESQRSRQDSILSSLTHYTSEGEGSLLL
Description: as §1, §2, §3, §4, §5, §6

Row | Compound | EC50 (hCX3CR1 [1]) [µM] | EC50 (hCX3CR1 [2]) [µM] | EC50 (mCX3CR1) [µM] | EC50 (rCX3CR1) [µM]
1 | COC1CCN(CC(C)(C)CNC(=O)c2cc3c(s2)CCCCCC3)CC1 [Example 47, N-[3-(4-methoxypiperidin-1-yl)-2,2-dimethylpropyl]-4,5,6,7,8,9-hexahydrocycloocta[b]thiophene-2-carboxamide] | 12.6 | 16.4 | 71.5 | 19.8
2 | CC(C)OC1CCCN(CC2(CNC(=O)c3cc4c(s3)CCCCCC4)CCC2)C1 (centres unmarked) [Example 50, N-[[1-[(3-propan-2-yloxypiperidin-1-yl)methyl]cyclobutyl]methyl]-4,5,6,7,8,9-hexahydrocycloocta[b]thiophene-2-carboxamide] | 15.8 | 16.1 | 45.7 | 43.5
3 | COC1(C)CCN(CC2(CNC(=O)c3cc4c(s3)CCCCCC4)CCCC2)CC1 [Example 53, N-[[1-[(4-methoxy-4-methylpiperidin-1-yl)methyl]cyclopentyl]methyl]-4,5,6,7,8,9-hexahydrocycloocta[b]thiophene-2-carboxamide] | 8.6 | 11.8 | 48.6 | 33.7
4 | COC1CCCN(CC(C)(C)CNC(=O)c2cc3c(s2)CCCCCC3)C1 (centres unmarked) [Example 54, N-[3-(3-methoxypiperidin-1-yl)-2,2-dimethylpropyl]-4,5,6,7,8,9-hexahydrocycloocta[b]thiophene-2-carboxamide] | 16.3 | 17.4 | > 100 | > 100
5 | CN(C)CC1(CNC(=O)c2cc3c(s2)CCCCCC3)CC(F)(F)C1 [Example 56, N-[[1-[(dimethylamino)methyl]-3,3-difluorocyclobutyl]methyl]-4,5,6,7,8,9-hexahydrocycloocta[b]thiophene-2-carboxamide] | 18.5 | 9.6 | 24.9 | 23.9
6 | O=C(NCC1(CN2CCCC2)CC(F)(F)C1)c1cc2c(s1)CCCCCC2 [Example 57, N-[[3,3-difluoro-1-(pyrrolidin-1-ylmethyl)cyclobutyl]methyl]-4,5,6,7,8,9-hexahydrocycloocta[b]thiophene-2-carboxamide] | 15.3 | 15.6 | 30.1 | 20.3
7 | CC1CCCC1(CNC(=O)c1cc2c(s1)CCCCCC2)CN1CCCC1 (centres unmarked) [Example 62, N-[[2-methyl-1-(pyrrolidin-1-ylmethyl)cyclopentyl]methyl]-4,5,6,7,8,9-hexahydrocycloocta[b]thiophene-2-carboxamide] | 20.8 | 12.9 | 99.4 | 40.9

Next, values leading:

Row | EC50 (hCX3CR1 [1]) [µM] | EC50 (hCX3CR1 [2]) [µM] | EC50 (mCX3CR1) [µM] | EC50 (rCX3CR1) [µM] | Compound
8 | 18.5 | 9.9 | 18.2 | 13.7 | COC1(C)CCN(CC2(CNC(=O)c3cc4c(s3)CCCCCC4)CCC2)CC1 [Example 48, N-[[1-[(4-methoxy-4-methylpiperidin-1-yl)methyl]cyclobutyl]methyl]-4,5,6,7,8,9-hexahydrocycloocta[b]thiophene-2-carboxamide]
9 | 10 | 8.9 | 8.7 | 6.6 | COC1CCN(CC2(CNC(=O)c3cc4c(s3)CCCCCC4)CCC2)CC1 [Example 49, N-[[1-[(4-methoxypiperidin-1-yl)methyl]cyclobutyl]methyl]-4,5,6,7,8,9-hexahydrocycloocta[b]thiophene-2-carboxamide]
10 | 15.7 | 18.4 | 15.4 | 34.8 | CC(C)OC1CCN(CC2(CNC(=O)c3cc4c(s3)CCCCCC4)CCC2)CC1 [Example 51, N-[[1-[(4-propan-2-yloxypiperidin-1-yl)methyl]cyclobutyl]methyl]-4,5,6,7,8,9-hexahydrocycloocta[b]thiophene-2-carboxamide]
11 | 19.4 | 8.4 | 25.1 | 19.4 | CC1(O)CCCN(CC2(CNC(=O)c3cc4c(s3)CCCCCC4)CCCC2)C1 (centres unmarked) [Example 52, N-[[1-[(3-hydroxy-3-methylpiperidin-1-yl)methyl]cyclopentyl]methyl]-4,5,6,7,8,9-hexahydrocycloocta[b]thiophene-2-carboxamide]
12 | 13.7 | 7.1 | 8.1 | 12.1 | COC1CCCN(CC2(CNC(=O)c3cc4c(s3)CCCCCC4)CCC2)C1 (centres unmarked) [Example 55, N-({1-[(3-Methoxypiperidin-1-yl)methyl]cyclobutyl}methyl)-4H,5H,6H,7H,8H,9H-cycloocta[b]thiophene-2-carboxamide]
13 | 21.9 | 5 | 19.1 | 16.8 | CC1(C)CN(CC2(CNC(=O)c3cc4c(s3)CCCCCC4)CCC2)CCC1O (centres unmarked) [Example 58, N-[[1-[(4-hydroxy-3,3-dimethylpiperidin-1-yl)methyl]cyclobutyl]methyl]-4,5,6,7,8,9-hexahydrocycloocta[b]thiophene-2-carboxamide]
14 | 11.9 | 1 | 9 | 9.2 | CC1(O)CCCN(CC2(CNC(=O)c3cc4c(s3)CCCCCC4)CCC2)C1 (centres unmarked) [Example 59, N-[[1-[(3-hydroxy-3-methylpiperidin-1-yl)methyl]cyclobutyl]methyl]-4,5,6,7,8,9-hexahydrocycloocta[b]thiophene-2-carboxamide]
